Experimental data reported in PMC5663395, “Chemical Validation of Methionyl-tRNA Synthetase as a Druggable Target in Leishmania donovani” (ACS Infectious Diseases, 2017).

Columns and labels:
[1] = Plasma protein binding, equilibrium dialysis, mouse plasma; type: in vitro ADME; details: female, CD1, read-out: fu (unbound fraction)
Description: which gave the best fit to the data was then recorded as the logP. Using the logP and an experimentally determined pKa (see above), the software generated a lipophilicity plot showing changes in the logD with increasing pH and from this plot a logD7.3 and logD5.6 values were recorded.
Plasma Protein Binding Determination
A 96-well equilibrium dialysis apparatus was used to determine the free fraction in plasma for DDD806905 (HT Dialysis LLC, Gales Ferry, CT). Membranes (12-14 kDA cut-off) were conditioned in deionised water for 60 minutes, followed by conditioning in 80:20 deionised water:ethanol for 20 minutes, and then rinsed in isotonic buffer before use. Female CD1 mouse plasma or human plasma was removed from the freezer and allowed to thaw on the day of experiment. Thawed plasma was then centrifuged (Allegra X12-R, Beckman Coulter, USA), spiked with test compound (final concentration 10 μg/ml), and 150 μL aliquots (n=6 replicate determinations) loaded into the 96-well equilibrium dialysis plate. […] All samples were analysed by UPLC-MS/MS on a Quattro Premier XE Mass Spectrometer (Waters Corporation, USA).
The unbound fraction (fu) was determined as the ratio of the peak area in buffer to that in plasma. […]

[2] = Mouse pharmacokinetics integrated in efficacy study (blood levels); details: female, BALB/c, whole blood, po, 50 mg/kg; for AUC(0-t): AUC(0-8h); for AUC(0-t) / Cmax: infected mice, 50 mg/kg oral; for Cmax: Cmax in blood
[3] = pKa measurement (Sirius T3, UV-metric); type: physicochemical
Description: calculated, both in terms of pEC50 values. MIC (minimum inhibitory concentration) values are defined as the lowest concentration tested at which maximal inhibition is reached.
THP-1 cells were differentiated in 96-well plates with PMA as described above. Following differentiation the cells were treated for 30 min with dose-response curves of test compounds in presence of 100 nM LysoTracker Red DND-99 (Thermo Fisher) and 5 µg/ml Hoechst 33342. Next cells were washed 3 times with Hanks Buffered Saline Solution (Gibco) and imaged on a Perkin Elmer Operetta system. An image analysis algorithm to measure mean Lysotracker Red DND-99 intensity per cell was developed in Columbus. […]
To measure the pKa of DDD806905, a fast UV-metric method was performed using a Sirius T3 instrument (Sirius Analytical, U.K.). The calculation of the pKa was determined using the Sirius T3 refine software (Sirius Analytical, U.K.). In brief, the UV-metric pKa method is based on measuring pH during an acid-base titration and monitoring UV absorbance shift. […] The appearance of precipitate was monitored throughout the experiment by a turbidity sensing device. […] The pKas of DDD806905 was determined at the pH where there was maximal change in UV absorbance with respect to pH. […]
LogD7.4 values were quantified using a Sirius T3 instrument (Sirius Analytical, U.K.). […]

## Cl.Cl.O=c1nc(NCCCNCc2cc3c(Cl)cc(Cl)cc3[nH]2)[nH]c2ccccc12 [DDD806905, 2-((3-(((4,6-dichloro-1H-indol-2-yl)methyl)amino)propyl)amino)quinazolin-4(1H)-one dihydrochloride]
[1]
  fraction unbound at 5 h, 10 μg/ml: 0.006
[2]
  Tmax: 2 h
[2]; day 1
  AUC(0-t): 15800 ng·h/mL
[2]; day 10
  AUC(0-t): 23300 ng·h/mL
[2]; first dose day 1
  Cmax: 2600 ng/mL
[2]; first dose day 10
  Cmax: 3200 ng/mL
[3]; pH 5.6
  compound present in un-ionized state: ~0%
[3]; pH 7.3
  compound present in un-ionized state: 0.01%
